Measurements from paper PMC11477717, “Synthesis of Carborane–Thiazole Conjugates as Tyrosinase and 11β-Hydroxysteroid Dehydrogenase Inhibitors: Antiproliferative Activity and Molecular Docking Studies” (Molecules, 2024).
Read-outs that look alike come from different tables or passages of the source.

Key:
[1] = system: MDA-MB-231 (human breast adenocarcinoma); test: MTT antiproliferative assay, MDA-MB-231; assay type: cell-based; settings: for IC50: MTT, 72 h, MDA-MB-231 cells, read-out: IC50 ± SD MDA-MB-231; for SI HUVEC/ MDA-MB-231: selectivity index = IC50 normal cell line / IC50 cancer cell line
Method: (§1) All cell lines were obtained from ATCC, and all chemicals were purchased from Sigma-Aldrich, St. Louis, MO, USA. […] All media were supplemented with antibiotic and antimycotic solutions, according to the manufacturers’ instructions. MTT cytotoxicity assessments were performed as described previously. […] The cells counted using an automated cell counter (Countess® II FL, Invitrogen by Thermo Fisher Scientific Inc., Waltham, MA, USA) were plated in 96-well plates (Nunc Edge 2F, Thermo Fisher Scientific Inc.) at a density of 0.1 × 10^4 per well. After an additional 72 h, cells underwent an MTT cytotoxicity assay (see below). The IC50 values were calculated using ED50plus v 1.0 freeware software (Instituto Nacional de Enfermedades Respiratorias, Mexico City, Mexico). Each cell line was tested in three independent replicates.
(§2) After the incubation time was complete, the medium was removed and crystals of formazan were solubilized in pure isopropanol. The absorbance readout was conducted immediately using a plate reader, Multiskan Spectrum, at 570 nm (Thermo Fisher Scientific Inc., Waltham, MA, USA). The background optical density was measured in the wells filled with the culture medium, without any cells.

[2] = system: HUVEC (human umbilical vein endothelial cells); test: MTT antiproliferative assay, HUVEC healthy control; assay type: cell-based; settings: 72 h, HUVEC normal cells, read-out: IC50 ± SD HUVEC
Method: All cell lines were obtained from ATCC, and all chemicals were purchased from Sigma-Aldrich, St. Louis, MO, USA. Briefly, cells were cultivated in a controlled atmosphere using DMEM medium with fetal bovine serum (FBS) at a final concentration of 10% (A-172), an L15 medium with 15% FBS, cultivated without CO2 (MDA-MB-231), F12K with a heparin final concentration of 0.1 mg/mL, endothelial cell growth supplement with a final concentration of 0.03 mg/mL (HUVEC), and RPMI with 5% FBS. All media were supplemented with antibiotic and antimycotic solutions, according to the manufacturers’ instructions. MTT cytotoxicity assessments were performed as described previously. Briefly, cell lines A172, B16F10, MDA-MB-231, and HUVEC were seeded 24 h prior to the addition of the tested compounds. The cells counted using an automated cell counter (Countess® II FL, Invitrogen by Thermo Fisher Scientific Inc., Waltham, MA, USA) were plated in 96-well plates (Nunc Edge 2F, Thermo Fisher Scientific Inc.) at a density of 0.1 × 10^4 per well. After an additional 72 h, cells underwent an MTT cytotoxicity assay (see below). The IC50 values were calculated using ED50plus v 1.0 freeware software (Instituto Nacional de Enfermedades Respiratorias, Mexico City, Mexico). Each cell line was tested in three independent replicates.
Twenty microliters of an MTT solution (MTT: 3-(4,5-dimethylthiazol-2-yl)-2,5-diphenyl tetrazolium bromide, stock solution: 5 mg/mL) was added to each cell line for 2 h (A172, B16F10, MDA-MB-231, and HUVEC). After the incubation time was complete, the medium was removed and crystals of formazan were solubilized in pure isopropanol. The absorbance readout was conducted immediately using a plate reader, Multiskan Spectrum, at 570 nm (Thermo Fisher Scientific Inc., Waltham, MA, USA). The background optical density was measured in the wells filled with the culture medium, without any cells.

B16F10 (murine melanoma) = test: MTT antiproliferative assay, B16F10; assay type: cell-based; settings: for IC50: MTT, 72 h, B16F10 cells, read-out: IC50 ± SD B16F10; for SI HUVEC/ B16F10: selectivity index = IC50 normal cell line / IC50 cancer cell line
Method: as §1, §2

[3] = system: A172 (human brain glioblastoma); test: MTT antiproliferative assay, A172; assay type: cell-based; settings: for IC50: MTT, 72 h, A172 cells, read-out: IC50 ± SD A172; for SI HUVEC/A172: selectivity index = IC50 normal cell line / IC50 cancer cell line
Method: as §1, §2

mushroom tyrosinase [4] = target: T1, mushroom tyrosinase (Agaricus bisporus, UniProt C7FF04); test: Mushroom tyrosinase inhibition assay (L-DOPA, dopachrome 475 nm); assay type: biochemical
T1 construct: purchased Sigma-Aldrich
T1 sequence (C7FF04 1-392 limits assumed): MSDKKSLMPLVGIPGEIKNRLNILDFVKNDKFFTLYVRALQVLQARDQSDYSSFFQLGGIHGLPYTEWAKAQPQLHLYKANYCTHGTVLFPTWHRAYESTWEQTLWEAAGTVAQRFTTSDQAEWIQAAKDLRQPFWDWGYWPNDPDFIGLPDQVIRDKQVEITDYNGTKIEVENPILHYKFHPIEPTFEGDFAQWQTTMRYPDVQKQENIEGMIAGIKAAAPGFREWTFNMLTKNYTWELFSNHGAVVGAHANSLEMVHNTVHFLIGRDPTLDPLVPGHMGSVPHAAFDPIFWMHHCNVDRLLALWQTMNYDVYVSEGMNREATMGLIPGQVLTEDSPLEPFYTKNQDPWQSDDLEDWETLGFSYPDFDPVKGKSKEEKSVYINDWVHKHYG
Method: The mushroom tyrosinase (Sigma-Aldrich) inhibition was performed following previously reported methods. […] The inhibitor solutions were prepared in DMSO with an initial concentration of 1 mM. Different aliquots were added to the solution containing the buffer, L-DOPA, and EDTA, with the enzyme being added last. […] Ascorbic acid was used as a reference inhibitor with an initial concentration of 1 mM. The IC50 values were calculated from the equation generated via exponential fit of the experimental data.

11β-HSD1 = target: T2, 11β-HSD1 (Homo sapiens, UniProt P28845); test: Inhibition of 11β-HSD1 assay (cortisone to cortisol, microsomes, cortisol ELISA); assay type: biochemical; settings: for IC50: 5 inhibitor concentrations, three independent determinations, read-out: IC50 ± SD 11β-HSD1
T2 construct: tissue XenoTech Lot No. 1410013; host or cells: pooled human liver microsomes
T2 sequence (P28845 whole entry): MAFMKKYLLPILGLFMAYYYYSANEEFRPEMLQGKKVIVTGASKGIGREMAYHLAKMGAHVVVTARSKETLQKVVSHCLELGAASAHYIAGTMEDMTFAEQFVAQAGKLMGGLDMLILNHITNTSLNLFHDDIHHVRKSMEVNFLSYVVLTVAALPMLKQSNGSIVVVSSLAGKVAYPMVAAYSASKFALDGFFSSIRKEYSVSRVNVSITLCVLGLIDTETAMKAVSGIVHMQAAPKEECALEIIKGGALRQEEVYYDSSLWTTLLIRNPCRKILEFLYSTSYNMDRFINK
Method: L160706125, was obtained from Cloud-Clone Corp. PBS, Lot No. H161008, was obtained from Pan Biotech. […] L191113457, was obtained from Cloud-Clone Corp. […] The microplates were incubated on an orbital shaker for 150 min at 37 °C. […] The quantity of cortisol formed from cortisone was determined using a cortisol ELISA kit, […].

mushroom tyrosinase [5] = target: T1, mushroom tyrosinase; test: Kinetic analysis of the inhibition of tyrosinase (Lineweaver-Burk); assay type: biochemical; settings: compound at 0.05 mM; for Mechanism of Inhibition: Lineweaver-Burk plots; for Vmax: L-DOPA 100-250 µM
Method: A series of experiments were performed to determine the inhibition kinetics of compounds by following the already reported method. The inhibitor concentrations for compounds were 50 and 100 µM. The substrate L-DOPA concentration was between 100 and 250 µM in all kinetic studies. Maximal initial velocity was determined from the initial linear portion of absorbance up to ten minutes after the addition of the enzyme. The inhibition type of the enzyme, Michaelis constant (KM), and maximal velocity (Vmax) were determined by Lineweaver–Burk plots of the inverse of velocities (1/V) versus the inverse of substrate concentration 1/[L-DOPA] mM^−1.

11β-HSD2 = target: T3, 11β-HSD2 (Homo sapiens, UniProt P80365); test: Inhibition of 11β-HSD2 assay (cortisol to cortisone, microsomes, cortisol ELISA); assay type: biochemical; settings: inhibitor 10 µM, 150 min, 37 °C
T3 construct: Human kidney microsomes, mixed gender, 0.5 mL, 10 mg/mL, Lot No. 1710160, were obtained from XenoTech; tissue XenoTech Lot No. 1710160; host or cells: human kidney microsomes
T3 sequence (P80365 1-405): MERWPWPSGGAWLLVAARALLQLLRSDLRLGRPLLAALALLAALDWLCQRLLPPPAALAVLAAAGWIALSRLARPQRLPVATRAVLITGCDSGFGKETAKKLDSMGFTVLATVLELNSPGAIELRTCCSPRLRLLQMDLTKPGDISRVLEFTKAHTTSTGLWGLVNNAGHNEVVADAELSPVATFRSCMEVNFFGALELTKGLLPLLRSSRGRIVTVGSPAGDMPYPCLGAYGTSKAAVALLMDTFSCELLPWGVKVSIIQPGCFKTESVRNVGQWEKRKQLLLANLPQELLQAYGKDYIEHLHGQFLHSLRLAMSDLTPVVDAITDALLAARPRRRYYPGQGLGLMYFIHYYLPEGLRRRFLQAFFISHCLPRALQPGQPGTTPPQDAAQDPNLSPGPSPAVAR
Method: The Enzyme-Linked Immunosorbent Assay (ELISA) Kit for 11-Beta-Hydroxysteroid Dehydrogenase Type 1, Lot No. L160706125, was obtained from Cloud-Clone Corp. PBS, Lot No. H161008, was obtained from Pan Biotech. […] The Enzyme-Linked Immunosorbent Assay (ELISA) Kit for 11-Beta-Hydroxysteroid Dehydrogenase Type 2, Lot No. L191113457, was obtained from Cloud-Clone Corp.
The oxidation reaction of cortisol to cortisone was carried out on 96-well microtiter plates in the presence of the enzyme 11β-HSD2 in a total volume of 100 µL. To this end, 60 µL of phosphate buffer (pH 7.4), 10 µL of a microsomes(0.12 µg/mL […]) solution in PBS (final quantity 2.5 µg), 20 µL of substrate mixture cortisol/NAD (final concentration 200 nM/2 mM), and 10 µL of the appropriate inhibitor solution (solvent DMSO/water 1/99, final concentration 10 µM) were placed in each well. The microplates were incubated on an orbital shaker for 150 min at 37 °C. […] The quantity of unreacted cortisol was determined using a cortisol ELISA kit DiaMetra.

[6] = L-DOPA 0.17 mM, pH 6.8, room temperature, read-out: IC50 ± SD mushroom tyrosinase
[7] = rounded values in SAR summary, unit mM, read-out: IC50 tyrosinase inhibition
[8] = inhibitor 10 µM, 150 min, 37 °C

Row | Compound | IC50 ([1]; Homo sapiens) [µM] | IC50 ([2]; Homo sapiens) [µM] | IC50 (B16F10 (murine melanoma); Mus musculus, B16-F10) [µM] | SI HUVEC/ B16F10 (B16F10 (murine melanoma)) | IC50 ([3]; Homo sapiens, A 172) [µM] | IC50 (mushroom tyrosinase [4]; [6]) [mM] | IC50 (mushroom tyrosinase [4]; [7]) [mM] | IC50 [1] [µM] | SI HUVEC/ MDA-MB-231 [1] | IC50 [2] [µM] | IC50 (11β-HSD1) [µM] | % of 11β-HSD1 Inhibition 10 μM (11β-HSD1; [8]) [%] | Mechanism of Inhibition (mushroom tyrosinase [5]) | Vmax (mushroom tyrosinase [5]) [mM/min] | IC50 (B16F10 (murine melanoma)) [µM] | IC50 [3] [µM] | SI HUVEC/A172 [3] | % of 11β-HSD2 Inhibition 10 μM (11β-HSD2) [%] | inhibition at 10 µM (11β-HSD1; [8]) [%]
1 | O=C(O)CCCc1ccc(N(CCCl)CCCl)cc1 [chlorambucil, reference compound] | > 10 | 7.43 ± 0.54 | 5.44 ± 0.19 | 1.37 | > 10 |  |  |  |  |  |  |  |  |  |  |  |  |  | 
2 | 2-(2-(1,2-Dicarba-closo-Dodecaboranylmethylene)Hydrazinyl)-4-p-Tolylthiazole [4d] |  |  |  |  |  | 0.121 ± 0.0219 | 0.121 | 6.85 ± 0.86 | 1.21 | 8.32 ± 0.09 | 9.05 ± 0.25 | 55.78 | Mixed | 0.3820 | > 10 | 7.88 ± 0.98 | 1.06 | 27.83 | 
3 | 4-(Adamant-1-yl)-2-(2-(1,2-Dicarba-closo-Dodecaboranylmethylene)Hydrazinyl)Thiazole [4k] |  |  |  |  |  | 0.134 ± 0.00584 | 0.134 | > 10 |  | 5.86 ± 0.34 |  |  | Mixed | 0.7863 | > 10 | > 10 |  |  | 
4 | 4-(2-(2-(1,2-Dicarba-closo-Dodecaboranylmethylene)Hydrazinyl)Thiazol-4-yl)Benzene-1-Sulfonyl Fluoride [4j] |  |  |  | >1.74 |  |  |  | 6.43 ± 0.23 | >1.56 | > 10 |  |  | Mixed | 0.7876 | 5.75 ± 0.46 | 6.4 ± 0.71 | >1.56 |  | 
5 | 4-(4-Bromophenyl)-2-(2-(1,2-Dicarba-closo-Dodecaboranylmethylene)Hydrazinyl)Thiazole [4b] |  |  |  | 1.39 |  | 0.145 ± 0.0144 |  | 6.56 ± 0.12 | 1.14 | 7.46 ± 0.13 | 6.9 ± 1.2 | 64.44 | Activator | 0.0912 | 5.37 ± 0.11 | 6.15 ± 0.26 | 1.21 | 27.36 | 
6 | 2-(2-(1,2-Dicarba-closo-Dodecaboranylmethylene)Hydrazinyl)-4-(3,4,5-Trimethoxyphenyl)Thiazole [4i] |  |  |  | >1.70 |  | 0.18 ± 0.00783 |  | > 10 |  | > 10 |  |  | Mixed | 0.5474 | 5.88 | > 10 |  |  | 
7 | O=C1O[C@H]([C@@H](O)CO)C(O)=C1O [Ascorbic acid, reference compound] |  |  |  |  |  | 0.387 ± 0.012 |  |  |  |  |  |  |  |  |  |  |  |  | 
8 | 4-(2-(2-(1,2-Dicarba-closo-Dodecaboranylmethylene)Hydrazinyl)Thiazol-4-yl)Benzonitrile [4h] |  |  |  | 1.11 |  |  |  | 6.64 ± 0.81 | 0.93 | 6.17 ± 0.35 |  |  | Mixed | 0.1258 | 5.56 ± 0.3 | 7.72 ± 1.25 | 0.80 |  | 
9 | CC1(C)[C@@H](OC(=O)CCC(=O)O)CC[C@]2(C)[C@H]3C(=O)C=C4[C@@H]5C[C@@](C)(C(=O)O)CC[C@]5(C)CC[C@@]4(C)[C@]3(C)CC[C@@H]12 [Carbenoxolone, carbenoxolone, reference compound] |  |  |  |  |  |  |  |  |  |  |  |  |  |  |  |  |  |  | 88.9
